Results on four compounds are retold here after ChEMBL document CHEMBL1201862, “PubChem BioAssay data set” (2004).

Test systems include OVCAR-5; OVCAR-8; A498; MCF7; OVCAR-4; HCT-15; UACC-62; CCRF-CEM; PC-3; NCI/ADR-RES; MDA-N; SF-539; NCI-H522; SNB-19; SK-MEL-5; MOLT-4; SK-OV-3; SF-268; RXF 393; HOP-92.
Assay in all cases: DTP human tumour cell line panel, 48 h

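All cell lines were grown in 96-well plates and treated with compound for 48 hours. Abbreviation: GI50, concentration required for 50% inhibition of growth.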 Active and inactive are the calls of the source. Rule as the data show it: active = GI50 up to about 1.1 µM and inactive = higher.

With `NN(CC(=O)O)CC(=O)O`, the GI50 in the assay with OVCAR-5 is > 100 µM (inactive); in the assay on OVCAR-8, > 100 µM (inactive); in the assay on A498, > 100 µM (inactive); in the assay on MCF7 it was > 100 µM (inactive); in the assay with OVCAR-4, > 100 µM (inactive); in the assay on HCT-15 it was above 100 µM. Besides, the GI50 in the assay on UACC-62, with CCRF-CEM, in the assay with PC-3, in the assay on NCI/ADR-RES, with MDA-N and with SF-539 was > 100 µM (inactive) in each case. Moreover, the GI50 in the assay on NCI-H522, in the assay on SNB-19, in the assay with SK-MEL-5, in the assay on MOLT-4, in the assay with SK-OV-3 and in the assay on SF-268 was > 100 µM (inactive) throughout.
Regarding `CCOC(=O)c1nnsc1NN`, the GI50 is > 100 µM (inactive) with OVCAR-5; > 100 µM (inactive) in the assay on OVCAR-8; 60.5 µM (inactive) in the assay with MCF7; > 100 µM (inactive) in the assay on OVCAR-4; > 100 µM (inactive) with RXF 393; above 100 µM in the assay with HCT-15. Also, the GI50 in the assay with UACC-62 was > 100 µM (inactive); in the assay with CCRF-CEM, 18.8 µM (inactive); in the assay on PC-3, > 100 µM (inactive); in the assay on NCI/ADR-RES, > 100 µM (inactive); in the assay with MDA-N it was 72.6 µM (inactive); in the assay on SF-539 it was > 100 µM (inactive). Besides, the GI50 in the assay with NCI-H522 is > 100 µM (inactive); in the assay with SNB-19 it was > 100 µM (inactive); in the assay with SK-MEL-5, > 100 µM (inactive); with MOLT-4 it was 34 µM (inactive); with SK-OV-3 it was > 100 µM (inactive); with HOP-92 it was > 100 µM (inactive). Moreover, in the assay on SF-268, the GI50 was > 100 µM (inactive).
In the case of `CCOC(=O)c1nnc2c(C(=O)OCC)c3ccccc3n2c1N`, the GI50 in the assay with OVCAR-5 was > 100 µM (inactive); in the assay with OVCAR-8, 5.16 µM (inactive); with A498, 4.85 µM (inactive); in the assay on MCF7 it was 13.1 µM (inactive); in the assay on OVCAR-4, 5.2 µM (inactive); in the assay with RXF 393, > 100 µM (inactive). Besides, the GI50 in the assay with HCT-15 was 7.66 µM; in the assay with UACC-62, 2.43 µM (inactive); in the assay on CCRF-CEM, 2.22 µM (inactive); in the assay on PC-3, 5.35 µM (inactive); in the assay on NCI/ADR-RES, 3.61 µM (inactive); in the assay with MDA-N it was 4.36 µM (inactive). Also, the GI50 in the assay on SF-539 was 5.66 µM (inactive); in the assay on NCI-H522 it was 6.21 µM (inactive); in the assay on SNB-19 it was 4.93 µM (inactive); in the assay with SK-MEL-5 it was 5.52 µM (inactive); with MOLT-4, 4.41 µM (inactive); in the assay with SK-OV-3, 6.04 µM (inactive). Also, the GI50 in the assay with SF-268 is 19.3 µM (inactive).
With `COC(=O)[C@H](Cc1ccccc1)NC(=O)OCC1OC(n2cc(C)c(=O)[nH]c2=O)CC1N=[N+]=[N-]` (some centres undefined), the GI50 is > 100 µM (inactive) in the assay on OVCAR-5; > 100 µM (inactive) in the assay on OVCAR-8; > 100 µM (inactive) with MCF7; > 100 µM (inactive) with OVCAR-4; > 100 µM (inactive) with RXF 393; above 100 µM with HCT-15. For the same compound, the GI50 in the assay on UACC-62, with CCRF-CEM, with PC-3, with NCI/ADR-RES, in the assay with MDA-N and in the assay with NCI-H522 was > 100 µM (inactive) in each case. For the same compound, the GI50 is > 100 µM (inactive) in the assay with SNB-19; 4.12 µM (inactive) in the assay on SK-MEL-5; > 100 µM (inactive) in the assay with MOLT-4; > 100 µM (inactive) in the assay on SK-OV-3; > 100 µM (inactive) with HOP-92; > 100 µM (inactive) with SF-268.

By GI50 is commonly meant the concentration that inhibits growth by half.
